Results published in publication PMC12686049 (2025).
Each block holds one compound with its values, some of them ahead of it.

Key:
[1] = tested on: A2-G (DNA, G4) GGGTGGGGGTGATAAACGGGGCATCAGGGACACATTGCTGGGTCGGGTCGT; assay: CD titration at 295 nm, Hill fit; conditions: 100 mM KCl; 10 mM sodium cacodylate, pH 7.0, 25 °C; 10 µM DNA; apparent, half-maximal ellipticity change; Hill coefficient 2.8 ± 1.5
[2] = tested on: A1-G (DNA, G4) CCGGGAGGAATCATGTAAGGGGTCCCGGGAACGGGCAAGGGGCTTTTCACC; assay: CD titration at 295 nm, Hill fit; conditions: 100 mM KCl; 10 mM sodium cacodylate, pH 7.0, 25 °C; 10 µM DNA; apparent, half-maximal ellipticity change; Hill coefficient 2.1 ± 0.9
[3] = tested on: lysF (DNA, G4) GGGACGCGGGGGGCGGCATCGGGAGCGGG; assay: thioflavin T fluorescence; conditions: 100 mM KCl; 10 mM sodium cacodylate, pH 7.4; 4 µM DNA, 1 µM dye; background without DNA 1154
[4] = tested on: aspf2 (DNA, G4) GGGGACGGGGGAGGTAGGGAGGG; assay: thioflavin T fluorescence; conditions: 100 mM KCl; 10 mM sodium cacodylate, pH 7.4; 4 µM DNA, 1 µM dye; background without DNA 1154
[5] = tested on: chsG (DNA, G4) GGAGAGCGGGAGGTGGTGAGGG; assay: thioflavin T fluorescence; conditions: 100 mM KCl; 10 mM sodium cacodylate, pH 7.4; 4 µM DNA, 1 µM dye; background without DNA 1154
[6] = tested on: ftmE (DNA, G4) GGGAGTGGGGATGGCGACGGGGAGCAGGG; assay: thioflavin T fluorescence; conditions: 100 mM KCl; 10 mM sodium cacodylate, pH 7.4; 4 µM DNA, 1 µM dye; background without DNA 1154
[7] = tested on: skn7 (DNA, single strand) GGGGGGGGGGTGGG; assay: thioflavin T fluorescence; conditions: 100 mM KCl; 10 mM sodium cacodylate, pH 7.4; 4 µM DNA, 1 µM dye; background without DNA 1154
[8] = tested on: gstA (DNA, G4) GGGCTGGGTGGCGGCCGCTGGTTGGGCGGG; assay: thioflavin T fluorescence; conditions: 100 mM KCl; 10 mM sodium cacodylate, pH 7.4; 4 µM DNA, 1 µM dye; background without DNA 1154
[9] = tested on: mp1 (DNA, single strand) GGCTCCGGCTCCGGCTCCGG; assay: thioflavin T fluorescence; conditions: 100 mM KCl; 10 mM sodium cacodylate, pH 7.4; 4 µM DNA, 1 µM dye; background without DNA 1154
[10] = tested on: hscA (DNA, G4) GGGGCTGAATTGGGGGGGAAAACGAGACGGG; assay: thioflavin T fluorescence; conditions: 100 mM KCl; 10 mM sodium cacodylate, pH 7.4; 4 µM DNA, 1 µM dye; background without DNA 1154
[11] = tested on: pkaC1 (DNA, G4) GGGTTGTGGTGGGTGGAGGGATGGGG; assay: thioflavin T fluorescence; conditions: 100 mM KCl; 10 mM sodium cacodylate, pH 7.4; 4 µM DNA, 1 µM dye; background without DNA 1154
[12] = tested on: abcB (DNA, G4) GGGGGTGGGCGTTGGGGCGGG; assay: thioflavin T fluorescence; conditions: 100 mM KCl; 10 mM sodium cacodylate, pH 7.4; 4 µM DNA, 1 µM dye; background without DNA 1154
[13] = tested on: arp2 (DNA, G4) GGGGAGGGGACCCTTGCATGGAGGGGGGG; assay: thioflavin T fluorescence; conditions: 100 mM KCl; 10 mM sodium cacodylate, pH 7.4; 4 µM DNA, 1 µM dye; background without DNA 1154
[14] = tested on: laeA (DNA, G4) GGGATGTGGGACAGGGATTTGGG; assay: thioflavin T fluorescence; conditions: 100 mM KCl; 10 mM sodium cacodylate, pH 7.4; 4 µM DNA, 1 µM dye; background without DNA 1154
[15] = tested on: rodA (DNA, G4) GGGGTAGGGAACAGGGTCCCGGG; assay: thioflavin T fluorescence; conditions: 100 mM KCl; 10 mM sodium cacodylate, pH 7.4; 4 µM DNA, 1 µM dye; background without DNA 1154
[16] = tested on: yap1 (DNA, G4) GGGATGGGCTTCCCAAGTCGGGGAGAGGG; assay: thioflavin T fluorescence; conditions: 100 mM KCl; 10 mM sodium cacodylate, pH 7.4; 4 µM DNA, 1 µM dye; background without DNA 1154
[17] = tested on: erg1 (DNA, G4) GGGCGACGGGGAAGAGGTAGGGAGGG; assay: thioflavin T fluorescence; conditions: 100 mM KCl; 10 mM sodium cacodylate, pH 7.4; 4 µM DNA, 1 µM dye; background without DNA 1154
[18] = tested on: atrF (DNA, G4) GGGTATTTGTTTGGGGGGATGGG; assay: thioflavin T fluorescence; conditions: 100 mM KCl; 10 mM sodium cacodylate, pH 7.4; 4 µM DNA, 1 µM dye; background without DNA 1154
[19] = tested on: fks1 (DNA, G4) GGAAGGGGCTCGGGCATGGG; assay: thioflavin T fluorescence; conditions: 100 mM KCl; 10 mM sodium cacodylate, pH 7.4; 4 µM DNA, 1 µM dye; background without DNA 1154
[20] = tested on: ags1 (DNA, G4) GGGCTTGAGGGGAACTGGGAGGAGCGGG; assay: thioflavin T fluorescence; conditions: 100 mM KCl; 10 mM sodium cacodylate, pH 7.4; 4 µM DNA, 1 µM dye; background without DNA 1154
[21] = tested on: zafA (DNA, G4) GGGCAGGGCAGAGCAGGGCAGGGG; assay: thioflavin T fluorescence; conditions: 100 mM KCl; 10 mM sodium cacodylate, pH 7.4; 4 µM DNA, 1 µM dye; background without DNA 1154
[22] = tested on: zrfC (DNA, G4) GGGTTGGGCTGGTCGACATGTGGGCCCGGG; assay: thioflavin T fluorescence; conditions: 100 mM KCl; 10 mM sodium cacodylate, pH 7.4; 4 µM DNA, 1 µM dye; background without DNA 1154
[23] = tested on: aspf28 (DNA, G4) GGGTTGCGAGGGAAGGAGGGGCGGG; assay: thioflavin T fluorescence; conditions: 100 mM KCl; 10 mM sodium cacodylate, pH 7.4; 4 µM DNA, 1 µM dye; background without DNA 1154
[24] = tested on: cyp51B (DNA, G4) GGGGTAGGGGGGCCCAGGG; assay: thioflavin T fluorescence; conditions: 100 mM KCl; 10 mM sodium cacodylate, pH 7.4; 4 µM DNA, 1 µM dye; background without DNA 1154
[25] = tested on: atrR (DNA, G4) GGGGGAGGGTGCGGGATGCTCTTCGGG; assay: thioflavin T fluorescence; conditions: 100 mM KCl; 10 mM sodium cacodylate, pH 7.4; 4 µM DNA, 1 µM dye; background without DNA 1154
[26] = tested on: pes1 (DNA, G4) GGGAGCAAGGGGAAATCGCTGAGGGTGGG; assay: thioflavin T fluorescence; conditions: 100 mM KCl; 10 mM sodium cacodylate, pH 7.4; 4 µM DNA, 1 µM dye; background without DNA 1154
[27] = tested on: erg5 (DNA, G4) GGGATTAGGGTATGCCTCAGGGTCATGGG; assay: thioflavin T fluorescence; conditions: 100 mM KCl; 10 mM sodium cacodylate, pH 7.4; 4 µM DNA, 1 µM dye; background without DNA 1154
[28] = tested on: Telomere (DNA, G4) TTAGGGTTAGGGTTAGGGTTAGGGTT; assay: thioflavin T fluorescence; conditions: 100 mM KCl; 10 mM sodium cacodylate, pH 7.4; 4 µM DNA, 1 µM dye; background without DNA 1154
[29] = tested on: bck1 (DNA, G4) GGGCCTGGAGGGGGGCCCGGGG; assay: thioflavin T fluorescence; conditions: 100 mM KCl; 10 mM sodium cacodylate, pH 7.4; 4 µM DNA, 1 µM dye; background without DNA 1154
[30] = tested on: ftmC (DNA, G4) GGGTCTGGAGCGCGGGGTTCGGGGATCGGG; assay: thioflavin T fluorescence; conditions: 100 mM KCl; 10 mM sodium cacodylate, pH 7.4; 4 µM DNA, 1 µM dye; background without DNA 1154
[31] = tested on: hmg1 (DNA, G4) GGGCGGCAGGGACAGGGGCAACTTCGGG; assay: thioflavin T fluorescence; conditions: 100 mM KCl; 10 mM sodium cacodylate, pH 7.4; 4 µM DNA, 1 µM dye; background without DNA 1154
[32] = tested on: B DNA (DNA, single strand) GGCGCTATTCTCTGGTGCTGCT; assay: thioflavin T fluorescence; conditions: 100 mM KCl; 10 mM sodium cacodylate, pH 7.4; 4 µM DNA, 1 µM dye; background without DNA 1154
[33] = tested on: cyp51A (DNA, G4) GGGTGGGGGTGATAAACGGGGCATCAGGG; assay: thioflavin T fluorescence; conditions: 100 mM KCl; 10 mM sodium cacodylate, pH 7.4; 4 µM DNA, 1 µM dye; background without DNA 1154
[34] = tested on: ste7 (DNA, G4) GGGAGGGACACAAAGAGGGGATAAGGAGGG; assay: thioflavin T fluorescence; conditions: 100 mM KCl; 10 mM sodium cacodylate, pH 7.4; 4 µM DNA, 1 µM dye; background without DNA 1154
[35] = tested on: gliN (DNA, G4) GGGGGGCGCTTGGCTGGGAAGGCGGTTGGG; assay: thioflavin T fluorescence; conditions: 100 mM KCl; 10 mM sodium cacodylate, pH 7.4; 4 µM DNA, 1 µM dye; background without DNA 1154
[36] = tested on: dppV (DNA, G4) GGGACGGCGTTGGGGGGGGGAAGGG; assay: thioflavin T fluorescence; conditions: 100 mM KCl; 10 mM sodium cacodylate, pH 7.4; 4 µM DNA, 1 µM dye; background without DNA 1154

K [1]: 32.5 ± 1.8 µM
K [2]: 32.7 ± 3.3 µM
SMILES: C[n+]1cc(NC(=O)c2ccc3ccc4ccc(C(=O)Nc5cc6ccccc6[n+](C)c5)nc4c3n2)cc2ccccc21

Fluorescence [3]: 86,442 ± 9 a.u.
Fluorescence [4]: 87,449 ± 40 a.u.
Fluorescence [5]: 38,112 ± 15 a.u.
Fluorescence [6]: 105,384 ± 10 a.u.
Fluorescence [7]: 7173 ± 6 a.u.
Fluorescence [8]: 56,709 ± 4 a.u.
Fluorescence [9]: 9852 ± 22 a.u.
Fluorescence [10]: 56,161 ± 21 a.u.
Fluorescence [11]: 62,347 ± 4 a.u.
Fluorescence [12]: 28,763 ± 5 a.u.
Fluorescence [13]: 82,140 ± 54 a.u.
Fluorescence [14]: 50,899 ± 9 a.u.
Fluorescence [15]: 50,100 ± 17 a.u.
Fluorescence [16]: 69,030 ± 18 a.u.
Fluorescence [17]: 71,126 ± 17 a.u.
Fluorescence [18]: 64,599 ± 9 a.u.
Fluorescence [19]: 72,302 ± 9 a.u.
Fluorescence [20]: 67,230 ± 34 a.u.
Fluorescence [21]: 26,023 ± 6 a.u.
Fluorescence [22]: 81,452 ± 19 a.u.
Fluorescence [23]: 71,548 ± 13 a.u.
Fluorescence [24]: 34,409 ± 10 a.u.
Fluorescence [25]: 37,691 ± 7 a.u.
Fluorescence [26]: 129,161 ± 40 a.u.
Fluorescence [27]: 149,474 ± 14 a.u.
Fluorescence [28]: 100,859 ± 19 a.u.
Fluorescence [29]: 73,174 ± 7 a.u.
Fluorescence [30]: 66,613 ± 9 a.u.
Fluorescence [31]: 148,303 ± 33 a.u.
Fluorescence [32]: 8808 ± 6 a.u.
Fluorescence [33]: 62,145 ± 13 a.u.
Fluorescence [34]: 126,709 ± 54 a.u.
Fluorescence [35]: 134,267 ± 16 a.u.
Fluorescence [36]: 47,933 ± 12 a.u.
SMILES: Cc1ccc2c(c1)sc(-c1ccc(N(C)C)cc1)[n+]2C
